From patent publication US20090036380A1, “Composition And Method For Brain Tumor Therapy” (Yeda Research and Development Co., Ltd., priority 2006, published 2009) come the findings set out here.

Entries after “also recorded” stand apart in the source; their conditions may differ.

The subject of test [1] is PC12 cells. In words: Viability / death of PC12 cells after transfection with Karet constructs (Live/dead kit, FACS, cell counting, Hoechst). The settings on record: for cell viability / death versus control vector: PC12, 18 hours after transfection, dead/live kit and FACS. In kind it is cell-based, rat. The protocol: FIG. 5a is a bar-graph of FACS data depicting 50 percent death of PC12 cells overexpressing Karet. Shown is a FACS analysis of PC12 viability 15 hours after transfection with Ha-Karet or control vector using Live/dead kit (Molecular probes), T-test=0.003.
FIG. 5b is a series of fluorescence photomicrographs depicting death of PC12 cells caused by Karet overexpression. Shown is a live/dead kit analysis of PC12 cells overexpressing Ha-Karet (left panels) versus control vector-transfected cells (right panels). Live cell are stained in green, dead cells are stained in red. Upper panels each show red fluorescence only (left picture) and green fluorescence only (right picture) pairs, and lower panels each show combined red and green fluorescence (left picture) and light microscopy images (right picture) pairs.
FIG. 5d is a pair of Hoechst stain histology photomicrographs depicting condensation of chromatin indicating apoptosis in PC12 cells expressing Karet, but not in control cells transfected with vector only.
FIG. 5e is a histogram depicting that Karet expression induces cell death of TrkA expressing cells, which is increased by NGF treatment and is decreased by necdin. PC12 or PC12 necdin stable cell line were electroporated with Karet or GFP control and incubated with or without 50 ng/ml NGF for 12 hours. Cells were counted and result presented as percent of control.
PC12 cells were transfected with Ha Karet, PTB, non PTB and their combinations. Cells were analyzed by FACS 18 hours after transfection using the dead/live kit. N=3; * p<0.05; **p<0.001;
The lower panel is a histogram depicting that Karet-mediated cell death correlates well with expression levels of the Karet protein. PC12 Tet-on cells were electroporated with Ha-Karet cloned under inducible promoter and incubated for 24 hours with different concentrations of doxycycline. Cells transfected with Karet but not treated with doxycycline served as control. Cells were counted and the results were determined as percent of control. The upper panel is a control Western blot depicting increased Karet expression with increased concentrations of doxycycline. Cells transfected with Karet and treated with doxycycline were lysed in NP-40 buffer and subjected to SDS-PAGE analysis. Similar amount of protein was loaded and blotted for Karet expression with Ha antibody. Proteins levels were checked with anti-tubulin antibody.
FIG. 18a—PC12 were transfected with Ha Karet, Karet F217V, PTB F217V or a control vector (pcDNA3) and 18 hours after transfection the effect of Karet or Karet mutants on cell death was determined using the dead/live kit and FACS analysis. Results are presented in percentages as compared to cells transfected with the control vector. N=3 **P<0.001. […] FIG. 18b—Cells were lysed 24 hours after transfection, fractionated on SDS-PAGE and immunoblot for anti Ha (Covance).
FIG. 19 is a histogram depicting FACS analysis of Karet-induced death. PC12 cells were co-transfected with Karet and the PTB, non-PTB or the F217V mutant at different ratios (1:1, 1:2, 1:3) and 18 hours after transfection the cells were analyzed by FACS using the dead/live kit.
Viability of cells was evaluated using the Live/dead viability/cytotoxicity kit (Cat. No. L-3224), Molecular Probes, Inc., Eugene, Oreg., USA, according to manufacturer's instructions.

Test [2] deals with T1, necdin (Homo sapiens, UniProt Q99608).
T1 construct: expressed in transfected cells
T1 sequence (Q99608 1-321): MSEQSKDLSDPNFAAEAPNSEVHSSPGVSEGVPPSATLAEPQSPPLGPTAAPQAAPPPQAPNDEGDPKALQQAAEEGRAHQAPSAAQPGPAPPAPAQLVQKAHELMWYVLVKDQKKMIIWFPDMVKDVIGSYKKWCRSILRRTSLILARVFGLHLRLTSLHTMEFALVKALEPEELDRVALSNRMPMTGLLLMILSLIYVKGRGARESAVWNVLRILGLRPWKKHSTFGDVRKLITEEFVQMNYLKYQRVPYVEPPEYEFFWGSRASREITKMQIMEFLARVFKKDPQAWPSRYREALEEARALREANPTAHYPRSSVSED
In words: Co-immunoprecipitation of Karet with necdin. The format is binding. The settings on record: necdin-PC12 cells, during 50 ng/ml NGF treatment. The protocol:
Karet tagged with the HA epitope was immunoprecipitated with anti-HA antibody, the precipitated proteins were separated electrophoretically, and gel blots were incubated with anti-necdin. In control experiments the HA-Karet was substituted with vector.
FIGS. 4a-c are co-immunoprecipitation assay results depicting the influence of NGF treatment on TrkA-Karet interaction. FIG. 4a depicts that TrkA-Karet interaction occurred prior to NGF treatment and was enhanced after ligand stimulation for 10 minutes (10 m) or 2 hours (2 h). HA-Karet was electroporated into cell line PC12, and the cells were treated with 50 ng/ml NGF for the indicated time periods in order to activate p75 and TrkA. Karet tagged with the HA epitope was immunoprecipitated with anti-HA antibody, the precipitated proteins were separated electrophoretically, and gel blots were incubated with anti-TrkA antibody (RTA). FIG. 4b depicts that necdin seems to compete with TrkA for binding to Karet. myc-Karet was electroporated into necdin stable cell line, and the cells were treated with 50 ng/ml NGF for the indicated time periods. Karet tagged with the myc epitope was immunoprecipitated with anti-myc antibody, the precipitated proteins were separated electrophoretically, and gel blots were incubated with anti-TrkA antibody (RTA). […] A blot from the same experiment was stripped and re-incubated with anti-necdin antibody. […]

For “Karet F217V: full-length mouse Karet with phenyl alanine at position 217 point mutated to valine”, in test [1], the “cell viability / death versus control vector” value is given as “do not cause death; also recorded: does not induce cell death”. Further, in test [1] (PC12 co-transfected with Karet at ratios 1:1, 1:2, 1:3, FACS 18 hours after transfection), the “effect on Karet-induced death in competition assay” value is on record as “reduced Karet-induced death”.
“Karet: full-length mouse Karet protein (SEQ ID NO:1), PTB domain protein, expressed from pcDNA3 with HA tag”: in test [2], the interaction with necdin entry is “robust and constant”. In test [1], the “cell viability / death versus control vector” value is reported as “significant reduction in the viability”. In addition, the “cell death versus Karet expression level” value in test [1] (PC12 Tet-on cells, 24 hours, different concentrations of doxycycline) was “well correlated with expression levels of the Karet protein”. The Hoechst staining entry in test [1] (PC12 cells expressing Karet versus control-transfected cells) was “condensed chromatin indicating apoptotic death”.
